Experimental data: patent publication US11911434B2, “Stable antibody-drug conjugate, preparation method therefor, and use thereof” (GENEQUANTUM HEALTHCARE (SUZHOU) CO., LTD., priority 2014, dated 2024)

Experiments:
SK-BR-3 cells = experiment: Tumor cell proliferation, CellTiter Glo, SK-BR-3; type: cell-based, human; settings: SK-BR-3, 48-96 h; read-out: Inhibition effects on tumor cell proliferation (IC50)
Description: (§1) 1) ErbB2/Her2 low expressing human breast cancer cells MCF-7, MDA-MB-468, ErbB2/Her2 high expressing human breast cancer cells BT-474, SK-BR-3, HCC1954, human ovarian cancer cells SK-OV-3, human gastric cancer cell NCI-N87 was seeded into a 96-well plate at 100 μl/well (containing 1000 to 10000 cells), and incubated in a cell culture incubator overnight (37° C., 5% CO2, 95% air, 100% humidity).
(§2) 3) The cell plate was removed from the incubator, equilibrated for about 30 minutes to room temperature. Each well was added 100 μl CellTiter Glo reagent, shocked in an oscillator for 2 min, then left stand for 10 min at room temperature in dark, the relative light units (RLU) is measured with a BioTech Gen5 microplate reader.

MCF-7 cells = experiment: Tumor cell proliferation, CellTiter Glo, MCF-7; type: cell-based, human; settings: MCF-7, 48-96 h; read-out: Inhibition effects on tumor cell proliferation (IC50)
Description: as §1, §2

[1] = system: cells with low ErbB2/Her2 expression (MCF-7, MDA-MB-468); experiment: Tumor cell proliferation, cells with low ErbB2/Her2 expression; type: cell-based, human; settings: 0.005-30 nM
Description: as §1, §2

MDA-MB-468 cells = experiment: Tumor cell proliferation, CellTiter Glo, MDA-MB-468; type: cell-based, human; settings: MDA-MB-468, 48-96 h; read-out: Inhibition effects on tumor cell proliferation (IC50)
Description: as §1, §2

NCI-N87 cells = experiment: Tumor cell proliferation, CellTiter Glo, NCI-N87; type: cell-based, human; settings: NCI-N87, 48-96 h; read-out: Inhibition effects on tumor cell proliferation (IC50)
Description: as §1, §2

BT-474 cells = experiment: Tumor cell proliferation, CellTiter Glo, BT-474; type: cell-based, human; settings: BT-474, 48-96 h; read-out: Inhibition effects on tumor cell proliferation (IC50)
Description: as §1, §2

[2] = system: cells with high ErbB2/Her2 expression (BT-474, SK-BR-3, HCC1954, SK-OV-3, NCI-N87); experiment: Tumor cell proliferation, cells with high ErbB2/Her2 expression; type: cell-based, human; settings: 0.005-30 nM
Description: as §1, §2

HCC-1954 cells = experiment: Tumor cell proliferation, CellTiter Glo, HCC1954; type: cell-based, human; settings: HCC-1954, 48-96 h; read-out: Inhibition effects on tumor cell proliferation (IC50)
Description: as §1, §2

SK-OV-3 cells = experiment: Tumor cell proliferation, CellTiter Glo, SK-OV-3; type: cell-based, human; settings: SK-OV-3, 48-96 h; read-out: Inhibition effects on tumor cell proliferation (IC50)
Description: as §1, §2

HCC1954 xenograft = HCC1954 xenograft in nude mice; type: in vivo, BALB/c nude mouse; settings: 5 mg/kg
Description: The in vivo anti-tumor effect of the candidate ADC was determined using xenograft model of nude mice after administration of the candidate ADC.
1) HCC1954 breast cancer cells in the logarithmic growth phase were collected and adjusted with matrigel buffer (PBS: BD Matrigel=1:1) to a cell density of 2.5×10^7/ml. 0.2 ml of this prepared HCC1954 cell suspension was injected subcutaneously to the right scapula of each BALB/c nude mouse (6 to 8 week-old, SPF grade, female).
2) 7 days after cell inoculation, the diameter of the tumor was measured by caliper and the tumor volume was calculated according to the Formula: V=0.5a×b^2 (a is the longest diameter of the tumor, b is the shortest diameter of the tumor). […] Administration was via the tail vein injection, and the control group received an equal volume of the vehicle. […] The tumor volumes at each time point were calculated and compared between groups. At the same time, the T-C or T/C value was used as the index to evaluate the anti-tumor activity of each drug. T-C value is calculated as the follows: T is the average time (Days) when the average tumor volume of each treatment group reaches a preset size (500 mm^3), C is the average time (Day) when the average tumor volume of the controlled group reaches the preset size (500 mm^3). While T/C (percentage) is the index for tumor inhibition effect, T is the average tumor volume of all the drug treatment groups at a fixed time point, and C is the average tumor volume of the control group at the fixed time point.

Molecule | IC50 (SK-BR-3 cells) | IC50 (MCF-7 cells) | inhibition effect on proliferation (in words) [1] | IC50 (MDA-MB-468 cells) | IC50 (NCI-N87 cells) | IC50 (BT-474 cells) | inhibition effect on proliferation (in words) [2] | IC50 (HCC-1954 cells) | IC50 (SK-OV-3 cells) | inhibition on ErbB2/Her2 positive breast cancer (in words) (HCC1954 xenograft) | tumor volumes compared with control group (HCC1954 xenograft; 10 days after administration) | Tumor Size at day 31 (Mean ± SEM) (HCC1954 xenograft; single tail vein injection, n=10) | tumor regrowth (HCC1954 xenograft; until 38 days after the administration) | T-C at 500 mm^3 (HCC1954 xenograft; time to reach 500 mm^3, treated minus control) | T/C (HCC1954 xenograft; treated / control average tumor volume)
COc1cc2cc(c1Cl)N(C)C(=O)C[C@H](OC(=O)[C@H](C)N(C)C(=O)CCS)[C@]1(C)O[C@H]1[C@H](C)[C@@H]1C[C@@](O)(NC(=O)O1)[C@H](OC)/C=C/C=C(\C)C2 [DM1] | 1.92 nM | 5.71 nM | significant inhibition effect | 4.22 nM | 7.18 nM | 16.3 nM | significant inhibition effect | 2.9 nM | 1.59 nM | – | – | – | – | – | –
ado-trastuzumab emtansine [Kadcyla] | 0.03 nM | – | only inhibits the proliferation of cells with low ErbB2/Her2 expression at high concentrations | – | 0.031 nM | 0.144 nM | – | 0.049 nM | 0.049 nM | significant inhibition | significantly smaller than control group | 29 ± 4 mm^3 | No sign of tumor regrowth | >17 days | 1.3%
